From patent US20110091484A1, “Compositions and methods for preventing or treating a viral infection” (priority 2005, published 2011)
Several values for one entry are separate records, joined by “and”; a condition that tells them apart may be missing. Equal values may be shown once.

Test system: WR vaccinia virus-infected 143B cell cultures
Assay type: in vivo, mice

## CC(C)Cn1cnc2c(N)nc3ccccc3c21 [Imiquimod]
  % Inhibition (plaque inhibition): 13% and 22.6%
